Columns and labels:
nutsedge, yellow = test: Test E preemergence herbicide test; type: in vivo, Cyperus esculentus; design: key: 0 = no effect, 100 = complete control
Excerpt: (§1) Seeds of plant species selected from corn (Zea mays), soybean (Glycine max), velvetleaf (Abutilon theophrasti), lambsquarters (Chenopodium album), wild poinsettia (Euphorbia heterophylla), pigweed, palmer (palmer pigweed, Amaranthus palmeri), waterhemp (common waterhemp, Amaranthus rudis), surinam grass (Brachiaria decumbens), crabgrass, large (large crabgrass, Digitaria sanguinalis), crabgrass, Brazil (Brazilian crabgrass, Digitaria horizontalis), panicum, fall (fall panicum, Panicum dichotomiflorum), foxtail, giant (giant foxtail, Setaria faberii), foxtail, green (green foxtail, Setaria viridis), goosegrass (Eleusine indica), johnsongrass (Sorghum halepense), ragweed (common ragweed, Ambrosia elatior), barnyardgrass (Echinochloa crus-galli), sandbur (southern sandbur, Cenchrus echinatus), arrowleaf […] rhombifolia), ryegrass, Italian (Italian ryegrass, Lolium multiflorum), dayflower, VA (Virginia dayflower, Commelina virginica), field bindweed (Convolvulus arvensis), morningglory (Ipomoea coccinea), nightshade (eastern black nightshade, Solanum ptycanthum), kochia (Kochia scoparia), nutsedge, yellow (yellow nutsedge, Cyperus esculentus), cocklebur (common cocklebur, Xanthium strumarium), smartweed (ladysthumb smartweed, Polygonum Persicaria) and beggarticks (hairy beggarticks, Bidens pilosa), were planted into a silt loam soil and treated preemergence with test chemicals formulated in a non-phytotoxic solvent mixture which included a surfactant. Treated plants and controls were maintained in a greenhouse for 21 days, after which time all species were compared to controls and visually evaluated. Plant response ratings, summarized in Table E, are based on a scale of 0 to 100 where 0 is no effect and 100 is complete control. A dash (-) response means no test result.

velvetleaf = test: Test E preemergence herbicide test; type: in vivo, Abutilon theophrasti; design: key: 0 = no effect, 100 = complete control
Excerpt: as §1

ryegrass, Italian = test: Test E preemergence herbicide test; type: in vivo, Lolium multiflorum; design: key: 0 = no effect, 100 = complete control
Excerpt: as §1

chickweed = test: Test D pre-/postemergence herbicide test; type: in vivo, Stellaria media; conditions: Preemergence; for Plant response rating, Chickweed: scale 0 to 100 (0 no effect, 100 complete control); for Plant response rating: 250 g ai/ha, Chickweed, scale 0 to 100
Procedure, shortened: (§2)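 Plants were maintained 7 to 21 days in a controlled environment after treatment and then scored visually against controls (0 no effect, 100 complete control). Seeds in silt loam received preemergence sprays, and 1- to 4-leaf plants received postemergence sprays, both formulated in non-phytotoxic solvent with surfactant.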

wheat, spring = test: Test D pre-/postemergence herbicide test; type: in vivo, Triticum aestivum; conditions: Preemergence, scale 0 to 100 (0 no effect, 100 complete control)
Procedure, shortened: as §2

wheat, winter = test: Test D pre-/postemergence herbicide test; type: in vivo, Triticum aestivum; conditions: Preemergence, scale 0 to 100 (0 no effect, 100 complete control)
Procedure, shortened: as §2

oat, wild = test: Test D pre-/postemergence herbicide test; type: in vivo, Avena fatua; conditions: Preemergence, scale 0 to 100 (0 no effect, 100 complete control)
Procedure, shortened: as §2

windgrass = test: Test D pre-/postemergence herbicide test; type: in vivo, Apera spica-venti; conditions: Preemergence, scale 0 to 100 (0 no effect, 100 complete control)
Procedure, shortened: as §2

kochia = test: Test D pre-/postemergence herbicide test; type: in vivo, Kochia scoparia; conditions: Preemergence; for Plant response rating, Kochia: scale 0 to 100 (0 no effect, 100 complete control); for Plant response rating: 250 g ai/ha, Kochia, scale 0 to 100
Procedure, shortened: as §2

Compound | Plant response rating, Nutsedge, Yellow (nutsedge, yellow; 31 g ai/ha) | Plant response rating, Nutsedge, Yellow (nutsedge, yellow; 62 g ai/ha) | Plant response rating, Nutsedge, Yellow (nutsedge, yellow; 125 g ai/ha) | Plant response rating, Nutsedge, Yellow (nutsedge, yellow; 250 g ai/ha) | Plant response rating, Velvetleaf (velvetleaf; 31 g ai/ha) | Plant response rating, Velvetleaf (velvetleaf; 62 g ai/ha) | Plant response rating, Velvetleaf (velvetleaf; 125 g ai/ha) | Plant response rating, Velvetleaf (velvetleaf; 250 g ai/ha) | Plant response rating, Ryegrass, Italian (ryegrass, Italian; 31 g ai/ha) | Plant response rating, Ryegrass, Italian (ryegrass, Italian; 62 g ai/ha) | Plant response rating, Ryegrass, Italian (ryegrass, Italian; 125 g ai/ha) | Plant response rating, Ryegrass, Italian (ryegrass, Italian; 250 g ai/ha) | Plant response rating, Chickweed (chickweed; 62 g ai/ha) | Plant response rating, Chickweed (chickweed; 125 g ai/ha) | Plant response rating, Chickweed (chickweed; 31 g ai/ha) | Plant response rating (chickweed) | Plant response rating, Wheat, Spring (wheat, spring; 62 g ai/ha) | Plant response rating, Wheat, Spring (wheat, spring; 125 g ai/ha) | Plant response rating, Wheat, Spring (wheat, spring; 31 g ai/ha) | Plant response rating, Wheat, Spring (wheat, spring; 250 g ai/ha) | further results
O=C1NCC(c2ccc(Cl)c(Cl)c2)C1C(=O)Nc1ccccc1F (racemic) [Compound 14] | 0 | 0 | 0 | 0 | 0 | 0 | 0 | 0 | 0 | 0 | 0 | 0 |  |  |  |  |  |  |  |  | Plant response rating, Nutsedge, Yellow (nutsedge, yellow; 16 g ai/ha): 0; Plant response rating, Velvetleaf (velvetleaf; 16 g ai/ha): 0; Plant response rating, Ryegrass, Italian (ryegrass, Italian; 16 g ai/ha): 0
O=C1NCC(c2ccc(OC(F)F)cc2)C1C(=O)Nc1cccc(F)c1F (racemic) [Compound 350] | 0 | 0 | 0 | 15 | 0 | 0 | 0 | 0 | 0 | 25 | 20 | 35 |  |  |  |  |  |  |  |  | 
O=C1NC[C@H](c2cccc(C(F)(F)F)c2)[C@H]1C(=O)Nc1ccccc1F [Compound 204, (3R,4S)—N-(2-fluorophenyl)-2-oxo-4-[3-(trifluoromethyl)phenyl]-3-pyrrolidinecarboxamide] | 0 | 0 | 0 | 0 | 0 | 0 | 0 | 0 | 0 | 0 | 25 | 30 | 100 | 100 | 100 | 100 | 0 | 25 | 0 | 30 | Plant response rating, Wheat, Winter (wheat, winter; 62 g ai/ha): 15; Plant response rating, Wheat, Winter (wheat, winter; 125 g ai/ha): 15; Plant response rating, Wheat, Winter (wheat, winter; 31 g ai/ha): 5; Plant response rating, Wheat, Winter (wheat, winter; 250 g ai/ha): 20; Plant response rating, Oat, Wild (oat, wild; 62 g ai/ha): 25; Plant response rating, Oat, Wild (oat, wild; 125 g ai/ha): 60; Plant response rating, Oat, Wild (oat, wild; 31 g ai/ha): 0; Plant response rating, Oat, Wild (oat, wild; 250 g ai/ha): 40; Plant response rating, Windgrass (windgrass; 62 g ai/ha): 65; Plant response rating, Windgrass (windgrass; 125 g ai/ha): 85; Plant response rating, Windgrass (windgrass; 31 g ai/ha): 50; Plant response rating, Windgrass (windgrass; 250 g ai/ha): 95; Plant response rating, Kochia (kochia; 62 g ai/ha): 45; Plant response rating, Kochia (kochia; 125 g ai/ha): 15; Plant response rating, Kochia (kochia; 31 g ai/ha): 20; Plant response rating (kochia): 70
O=C1NC[C@H](c2cccc(C(F)(F)F)c2)[C@H]1C(=O)Nc1cccc(F)c1F [Compound 206] | 15 | 15 | 20 | 75 | 0 | 35 | 30 | 50 | 0 | 35 | 80 | 65 | 100 | 70 | 30 | 95 | 25 | 45 | 10 | 65 | Plant response rating, Wheat, Winter (wheat, winter; 62 g ai/ha): 0; Plant response rating, Wheat, Winter (wheat, winter; 125 g ai/ha): 25; Plant response rating, Wheat, Winter (wheat, winter; 31 g ai/ha): 0; Plant response rating, Wheat, Winter (wheat, winter; 250 g ai/ha): 30; Plant response rating, Oat, Wild (oat, wild; 62 g ai/ha): 35; Plant response rating, Oat, Wild (oat, wild; 125 g ai/ha): 40; Plant response rating, Oat, Wild (oat, wild; 31 g ai/ha): 25; Plant response rating, Oat, Wild (oat, wild; 250 g ai/ha): 55; Plant response rating, Windgrass (windgrass; 62 g ai/ha): 75; Plant response rating, Windgrass (windgrass; 125 g ai/ha): 90; Plant response rating, Windgrass (windgrass; 31 g ai/ha): 75; Plant response rating, Windgrass (windgrass; 250 g ai/ha): 90; Plant response rating, Kochia (kochia; 62 g ai/ha): 60; Plant response rating, Kochia (kochia; 125 g ai/ha): 70; Plant response rating, Kochia (kochia; 31 g ai/ha): 45; Plant response rating (kochia): 80
